Measurements: patent US9452977B2, “Cyclopentylacrylamide derivative” (KYORIN PHARMACEUTICAL CO., LTD., priority 2008, dated 2016)

Biological target: T1, human hepatic GK (Homo sapiens, UniProt P35557)
T1 construct: His6 (C); made in house; host or cells: E. coli
T1 sequence (P35557 1-466 isoform P35557-2): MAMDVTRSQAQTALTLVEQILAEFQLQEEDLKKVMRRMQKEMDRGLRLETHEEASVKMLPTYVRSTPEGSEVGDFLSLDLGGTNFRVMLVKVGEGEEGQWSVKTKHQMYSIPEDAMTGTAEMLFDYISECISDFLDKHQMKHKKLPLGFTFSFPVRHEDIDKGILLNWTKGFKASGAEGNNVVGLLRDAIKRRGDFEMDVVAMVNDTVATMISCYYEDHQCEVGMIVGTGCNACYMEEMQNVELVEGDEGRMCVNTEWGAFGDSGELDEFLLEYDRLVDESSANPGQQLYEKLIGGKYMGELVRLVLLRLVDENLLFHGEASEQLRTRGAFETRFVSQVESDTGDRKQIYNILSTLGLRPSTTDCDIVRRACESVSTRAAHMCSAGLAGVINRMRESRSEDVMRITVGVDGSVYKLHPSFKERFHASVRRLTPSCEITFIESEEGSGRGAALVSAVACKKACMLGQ
Experiment: GK activity measurement (G6PDH-coupled NADH production)
Assay type: biochemical
Settings: GK activation; 5 mM D-glucose
Protocol: The GK activity was determined not by direct measurement of the amount of glucose-6-phosphate produced by the enzyme reaction but by measurement of the amount of NADH produced by a […] reaction.
(Preparation of Recombinant GK)
Cloning of Human Hepatic GK and Human Pancreas GK and Acquisition of Recombinant Proteins
Based on a human hepatic GK sequence available from GeneBank (Accession Number: NM_033507) and a human pancreas GK sequence (Accession Number: NM_000162), PCR cloning was performed using Pyrobest DNA Polymerase (product of Takara Bio Inc.) with human hepatic cDNA (product of Clontech Laboratories, Inc.) and human pancreas cDNA (product of Clontech Laboratories, Inc.) used as templates. […]
The test compound was dissolved in DMSO in advance, and 2 μL of the prepared solution was added to 20 μL of a solution containing the HEPES buffer solution (pH 7.1), KCl, MgCl2, D-glucose, ATP, NAD, and dithiothreitol. […] The GK was added such that an increase in absorbance per minute in the presence of 5% DMSO was between 0.002 to 0.003. After the reaction was initiated, the increase in absorbance at 340 nm was measured for 15 minutes using a SPECTRAmax 190 microplate spectrophotometer (product of Molecular Devices Corporation), and the activity was evaluated using the increase in the first 10 minutes.

CS(=O)(=O)c1ccc(/C(=C\[C@H]2C[C@@H](F)[C@@H](F)C2)C(=O)Nc2nccs2)cc1 [Compound 1A, (E)-3-[(1α,3α,4α)-3,4-difluorocyclopentyl]-2-[4-(methylsulfonyl)phenyl]-N-(thiazol-2-yl)acrylamide]
EC50: ≤ 1000 nM
